Test results taken from article PMC6973281 (2019).

Columns and labels:
[1] = test system: 22AG (DNA, G4) AGGGTTAGGGTTAGGGTTAGGG; experiment: spectrophotometric titration; settings: K+ 73 mM; K-phosphate buffer pH 7.0, 5 % v/v DMSO, 20 °C; 5 μM compound; isotherm could not be fitted
[2] = test system: 22AG (DNA, G4) AGGGTTAGGGTTAGGGTTAGGG; experiment: spectrophotometric titration, independent-site fit; settings: K+ 73 mM; K-phosphate buffer pH 7.0, 5 % v/v DMSO, 20 °C; 5 μM compound; unit not given

binding [1] | K 22AG [2] | Compound
weak | – | CCOC(=O)c1csc(/N=N/c2nc(C(=O)OCC)c(NCCCN(C)C)s2)n1
– | 2.4×10^4 | CCOC(=O)c1nc(/N=N/c2nc(C(=O)OCC)c(NCCCN(C)C)s2)sc1NCCCN(C)C
